The record followed here is patent US11958868B2, “Methods of using metal complexes to promote wound healing” (University of Macau, priority 2022, dated 2024).

For test [1], the system named is HIF-1α levels in A498 (VHL-null) cells. Put plainly: HIF-1α accumulation in VHL-null A498 cells. Format: cell-based. The settings on record: 1a 3 μM, VH298 100 μM, 2 h. Here is the method:
FIG. 3 depicts the effect of complex 1a on HIF-1α target gene products in cellulo. (A) Effect of complex 1a on specific proteins (GLUT1, VEGF, and EPO) mediated by HIF-1α in HEK293 cells. HEK293 cells were treated with 1a for 2 h. Cell lysis were collected and analyzed by the Western blotting. (B) Complex 1a has no effect on HIF-1α accumulation in a VHL null cancer cell line. A498 (VHL-null), or HEK293 cells were treated with 1% DMSO, 1a (3 μM), VH298 (100 μM), and FG-4592 (100 μM) for 2 h before lysis. (C) Effect of complex 1a on EPO, GLUT1, and VEGF levels in HEK293 cells with or without HIF-1α knockdown. Left: The expression levels of EPO, GLUT1, and VEGF in HEK293 cells with or without knockdown HIF-1α in the presence or absence of 1a. Right: Densitometry analysis of EPO, GLUT1, and VEGF levels on the Western blot. HIF-1α siRNA [sense, 5′-[…]-3′ (SEQ ID NO:1), antisense, 5′-[…]-3′ (SEQ ID NO:2)]. Negative control (NC) siRNA [sense, 5′-[…]-3′ (SEQ ID NO:3), antisense, 5′-[…]-3′ (SEQ ID NO:4)]. Data are expressed as means±SD (n=3 independent experiments), P values were calculated using a two-sided t-test. #P<0.05, P<0.01 HIF-1α siRNA vs. NC siRNA, *P<0.05, **P<0.01 1a vs. vehicle/DMSO group, respectively. […]

The subject of test [2] is EPO, GLUT1 and VEGF in HIF-1α knockdown HEK293 cells. Put plainly: HIF-1α knockdown assay in HEK293 cells. Format: cell-based, Human. The settings on record: HIF-1α siRNA. Here is the method:
FIG. 3 depicts the effect of complex 1a on HIF-1α target gene products in cellulo. (A) Effect of complex 1a on specific proteins (GLUT1, VEGF, and EPO) mediated by HIF-1α in HEK293 cells. HEK293 cells were treated with 1a for 2 h. Cell lysis were collected and analyzed by the Western blotting. (B) Complex 1a has no effect on HIF-1α accumulation in a VHL null cancer cell line. A498 (VHL-null), or HEK293 cells were treated with 1% DMSO, 1a (3 μM), VH298 (100 μM), and FG-4592 (100 μM) for 2 h before lysis. (C) Effect of complex 1a on EPO, GLUT1, and VEGF levels in HEK293 cells with or without HIF-1α knockdown. Left: The expression levels of EPO, GLUT1, and VEGF in HEK293 cells with or without knockdown HIF-1α in the presence or absence of 1a. Right: Densitometry analysis of EPO, GLUT1, and VEGF levels on the Western blot. HIF-1α siRNA [sense, 5′-[…]-3′ (SEQ ID NO:1), antisense, 5′-[…]-3′ (SEQ ID NO:2)]. Negative control (NC) siRNA [sense, 5′-[…]-3′ (SEQ ID NO:3), antisense, 5′-[…]-3′ (SEQ ID NO:4)]. Data are expressed as means±SD (n=3 independent experiments), P values were calculated using a two-sided t-test. #P<0.05, P<0.01 HIF-1α siRNA vs. NC siRNA, *P<0.05, **P<0.01 1a vs. vehicle/DMSO group, respectively.
A knockdown assay was performed to further verify the on-target effect of complex 1a. EPO, GLUT1, and VEGF are target genes regulated by HIF-1α. […]

The target of test [3] is T1, VHL (Homo sapiens, UniProt P40337). Put plainly: Binding affinity to VHL compared with VH298. The settings on record: complex 1a vs VH298.
T1 sequence (P40337 whole entry): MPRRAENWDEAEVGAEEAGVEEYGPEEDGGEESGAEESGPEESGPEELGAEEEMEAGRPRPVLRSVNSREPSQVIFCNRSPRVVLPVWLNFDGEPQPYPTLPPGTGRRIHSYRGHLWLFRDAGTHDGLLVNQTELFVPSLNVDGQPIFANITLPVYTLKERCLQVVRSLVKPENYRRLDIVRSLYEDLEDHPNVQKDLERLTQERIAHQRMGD
T1 sequence (Q15370 whole entry partner): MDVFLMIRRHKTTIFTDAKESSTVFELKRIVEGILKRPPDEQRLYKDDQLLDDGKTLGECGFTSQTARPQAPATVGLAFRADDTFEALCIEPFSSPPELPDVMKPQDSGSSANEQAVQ
T1 sequence (Q15369 whole entry partner): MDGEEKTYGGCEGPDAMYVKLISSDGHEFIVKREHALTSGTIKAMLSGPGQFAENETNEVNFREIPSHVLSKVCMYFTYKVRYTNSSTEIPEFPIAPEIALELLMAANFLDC
The target of test [4] is T1, VHL. Put plainly: Cellular thermal shift assay (CETSA) in HEK293 cell lysates, VHL. The arrangement: monitor the target engagement of 1a in HEK293 cell lysates; endogenous in cells; host or cells: HEK293 cell lysate. Format: binding. The settings on record: 3 μM, 30 min. Here is the method: HEK293 cells were treated with vehicle DMSO (1% for 2 h), 1a (0.3, 1, 3, 6 and 9 μM for 2 h), VH298 (100 μM for 2 h), MG132 (20 μM for 3 h), or FG-4592 (100 μM for 2 h) before lysis. Cell lysates were collected and incubated with VHL antibody overnight at 4° C. The proteins were immunoprecipitated using agarose beads. The levels of hydroxy-HIF-1α co-precipitated with VHL were detected using a hydroxy-HIF-1α antibody, and then visualized using ECL Western Blotting Detection Reagent (GE Healthcare). (B) Cellular thermal shift assays to monitor cellular target engagement of VHL and HIF-1α. HEK293 cell lysates were treated with 1a (3 μM) at room temperature for 30 min and then heated at different temperature ranging from 48° C. to 68° C. for 5 min. The protein samples were collected and detected by Western blotting using either VHL or PHD2 antibodies. (C) Fluorescence-based protein thermal shift assay of VBC in the presence or absence of VH298 (100 μM) and complex 1a (100 μM). […] Data are expressed as means±SD (n=3 independent experiments for figures a and b, samples for figures c and e), P values were calculated using a two-sided t-test. *P<0.05, **P<0.01 vs. DMSO group.
After incubating HEK293 cell lysates with complex 1a followed by heating to set temperatures, VHL and PHD2 levels in the soluble fraction were quantitated by Western blotting. […]

The structures appear in SMILES notation.

Consider `COc1cc[n+]2c3c1ccc1c(OC)cc[n+](c13)[Ir-3]213([c]2ccccc2-c2cccc[n+]21)[c]1ccccc1-c1cccc[n+]13.F[P-](F)(F)(F)(F)F` [1a], for which the “HIF-1α levels in A498 cells” value in test [1] is reported as “no increase in HIF-1α levels”. The “Accumulation of EPO, GLUT1 and VEGF in HIF-1α knockdown cells compared with normal cells” value in test [2] was “less able to increase the accumulation of EPO, GLUT1, and VEGF in HIF-1α knockdown cells”. For the same molecule, the “Binding affinity, lower than that of VH298” value on VHL [3] is listed as “around 100 fold”. For the same molecule, the “Shift in the VHL melting curve (CETSA)” value at VHL [4] is “about 6 °C”.
